Patent US20020137929A1, “1 - (3-heterocyclylphenyl) isothiourea, -isourea, -guanidine and -amidine herbicidal agents” (Intellectual Property Department, BASF Aktiengesellschaft, priority 1998, published 2002)

Experiments:
[1] = system: TRZAWR (Wheat, Winter, cv Riband); test: Postemergence herbicidal evaluation; assay type: in vivo, Triticum aestivum; settings: postemergence
Procedure, shortened: (§1)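 Two-week seedlings sprayed postemergence at 40 psi; formulation: 1:1 acetone/water, 0.5% TWEEN 20; application ≈0.0156–0.500 kg/ha. Greenhouse grow-out, then 0–9 visual scoring at 4–5 weeks.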

[2] = system: CHEAL (Lambsquarters, Common); test: Preemergence herbicidal evaluation; assay type: in vivo, Chenopodium album; settings: rated 4-5 weeks after treatment, rating scale 0-9
Procedure, shortened: (§2)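 Steps: mix seeds into potting soil; plant atop ~1 inch soil; spray compound in aqueous acetone (~0.0156-0.500 kg/ha equivalent); maintain in greenhouse with watering; rate visually 0-9 versus control at 4-5 weeks.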

[3] = system: CASOB (Sicklepod); test: Preemergence herbicidal evaluation; assay type: in vivo, Cassia obtusifolia; settings: rated 4-5 weeks after treatment, rating scale 0-9
Procedure, shortened: as §2

[4] = system: ZEAMX (Corn, Field); test: Preemergence herbicidal evaluation; assay type: in vivo, Zea mays; settings: rated 4-5 weeks after treatment, rating scale 0-9
Procedure, shortened: as §2

[5] = system: AMBEL (Ragweed, Common); test: Postemergence herbicidal evaluation; assay type: in vivo, Ambrosia artemisifolia; settings: postemergence
Procedure, shortened: as §1

[6] = system: IPOHE (Morningglory, Ivyleaf); test: Preemergence herbicidal evaluation; assay type: in vivo, Ipomoea hederacea; settings: rated 4-5 weeks after treatment, rating scale 0-9
Procedure, shortened: as §2

[7] = system: ECHCG (Barnyardgrass); test: Postemergence herbicidal evaluation; assay type: in vivo, Echinochloa crus-galli; settings: postemergence
Procedure, shortened: as §1

[8] = system: GALAP (Galium); test: Preemergence herbicidal evaluation; assay type: in vivo, Galium aparine; settings: rated 4-5 weeks after treatment, rating scale 0-9
Procedure, shortened: as §2

[9] = system: GLXMAW (Soybean, Williams); test: Postemergence herbicidal evaluation; assay type: in vivo, Glycine max, (L.) Merr. cv Williams; settings: postemergence
Procedure, shortened: as §1

[10] = system: ECHCG (Barnyardgrass); test: Preemergence herbicidal evaluation; assay type: in vivo, Echinochloa crus-galli; settings: rated 4-5 weeks after treatment, rating scale 0-9
Procedure, shortened: as §2

[11] = system: SETVI (Foxtail, Green); test: Postemergence herbicidal evaluation; assay type: in vivo, Setaria viridis; settings: postemergence
Procedure, shortened: as §1

[12] = system: IPOHE (Morningglory, Ivyleaf); test: Postemergence herbicidal evaluation; assay type: in vivo, Ipomoea hederacea; settings: postemergence
Procedure, shortened: as §1

[13] = system: ABUTH (Velvetleaf); test: Postemergence herbicidal evaluation; assay type: in vivo, Abutilon theophrasti; settings: postemergence
Procedure, shortened: as §1

Cn1c(C(F)(F)F)cc(=O)n(-c2cc(N=C3SCC(=O)N3Cc3cccc(C(F)(F)F)c3)c(Cl)cc2F)c1=O [Compound 142, 3-{4-Chloro-2-fluoro-5-{{3-[m-(trifluoromethyl)benzyl]-4-oxo-2-thiazolidinylidene}-amino}phenyl}-1-methyl-6-(trifluoromethyl)-2,4(1H,3H)-pyrimidinedione]
1.0: Preemergence herbicidal rating CASOB ([3]; rate 0.0156 kg/ha) | Preemergence herbicidal rating CASOB ([3]; rate 0.1250 kg/ha) | Preemergence herbicidal rating IPOHE ([6]; rate 0.1250 kg/ha) | herbicidal rating ECHCG ([7]; rate 0.0156 kg/ha) | herbicidal rating ECHCG ([7]; rate 0.0313 kg/ha) | herbicidal rating SETVI ([11]; rate 0.0313 kg/ha)
3.0: Preemergence herbicidal rating CHEAL ([2]; rate 0.0313 kg/ha) | herbicidal rating SETVI ([11]; rate 0.0625 kg/ha) | herbicidal rating ABUTH ([13]; rate 0.0156 kg/ha)
7.0: herbicidal rating IPOHE ([12]; rate 0.0156 kg/ha) | herbicidal rating IPOHE ([12]; rate 0.0313 kg/ha)
2.5: herbicidal rating TRZAWR ([1]; rate 0.0156 kg/ha) | herbicidal rating TRZAWR ([1]; rate 0.0313 kg/ha) | herbicidal rating TRZAWR ([1]; rate 0.0625 kg/ha)
0.0: Preemergence herbicidal rating CASOB ([3]; rate 0.0313 kg/ha) | Preemergence herbicidal rating CASOB ([3]; rate 0.2500 kg/ha) | Preemergence herbicidal rating ZEAMX ([4]; rate 0.0156 kg/ha) | Preemergence herbicidal rating ZEAMX ([4]; rate 0.0313 kg/ha) | Preemergence herbicidal rating ZEAMX ([4]; rate 0.0625 kg/ha) | Preemergence herbicidal rating IPOHE ([6]; rate 0.0156 kg/ha) | Preemergence herbicidal rating IPOHE ([6]; rate 0.0313 kg/ha) | Preemergence herbicidal rating IPOHE ([6]; rate 0.0625 kg/ha) | Preemergence herbicidal rating GALAP ([8]; rate 0.0156 kg/ha) | Preemergence herbicidal rating GALAP ([8]; rate 0.0313 kg/ha) | Preemergence herbicidal rating GALAP ([8]; rate 0.0625 kg/ha) | Preemergence herbicidal rating GALAP ([8]; rate 0.1250 kg/ha) | Preemergence herbicidal rating ECHCG ([10]; rate 0.0156 kg/ha) | Preemergence herbicidal rating ECHCG ([10]; rate 0.0313 kg/ha) | Preemergence herbicidal rating ECHCG ([10]; rate 0.0625 kg/ha) | Preemergence herbicidal rating ECHCG ([10]; rate 0.1250 kg/ha) | Preemergence herbicidal rating ECHCG ([10]; rate 0.2500 kg/ha)
5.5: herbicidal rating GLXMAW ([9]; rate 0.0625 kg/ha)
9.0: Preemergence herbicidal rating CHEAL ([2]; rate 0.0625 kg/ha) | Preemergence herbicidal rating CHEAL ([2]; rate 0.1250 kg/ha) | Preemergence herbicidal rating CHEAL ([2]; rate 0.2500 kg/ha) | herbicidal rating AMBEL ([5]; rate 0.0156 kg/ha) | herbicidal rating AMBEL ([5]; rate 0.0313 kg/ha) | herbicidal rating AMBEL ([5]; rate 0.0625 kg/ha) | Preemergence herbicidal rating GALAP ([8]; rate 0.2500 kg/ha) | herbicidal rating IPOHE ([12]; rate 0.0625 kg/ha) | herbicidal rating ABUTH ([13]; rate 0.0313 kg/ha) | herbicidal rating ABUTH ([13]; rate 0.0625 kg/ha)
2.0: Preemergence herbicidal rating CASOB ([3]; rate 0.0625 kg/ha) | Preemergence herbicidal rating ZEAMX ([4]; rate 0.1250 kg/ha) | Preemergence herbicidal rating ZEAMX ([4]; rate 0.2500 kg/ha) | Preemergence herbicidal rating IPOHE ([6]; rate 0.2500 kg/ha) | herbicidal rating ECHCG ([7]; rate 0.0625 kg/ha) | herbicidal rating SETVI ([11]; rate 0.0156 kg/ha)
5.0: herbicidal rating GLXMAW ([9]; rate 0.0156 kg/ha) | herbicidal rating GLXMAW ([9]; rate 0.0313 kg/ha)
4.0: Preemergence herbicidal rating CHEAL ([2]; rate 0.0156 kg/ha)

Cn1c(C(F)(F)F)cc(=O)n(-c2cc(N=C3SCC(=O)N3Cc3ccccc3Cl)c(Cl)cc2F)c1=O [Compound 143]
5.0: herbicidal rating GLXMAW ([9]; rate 0.0625 kg/ha)
1.0: Preemergence herbicidal rating CASOB ([3]; rate 0.2500 kg/ha) | Preemergence herbicidal rating IPOHE ([6]; rate 0.1250 kg/ha) | herbicidal rating ECHCG ([7]; rate 0.0156 kg/ha) | herbicidal rating ECHCG ([7]; rate 0.0625 kg/ha) | Preemergence herbicidal rating GALAP ([8]; rate 0.1250 kg/ha) | Preemergence herbicidal rating ECHCG ([10]; rate 0.1250 kg/ha) | Preemergence herbicidal rating ECHCG ([10]; rate 0.2500 kg/ha) | herbicidal rating SETVI ([11]; rate 0.0313 kg/ha)
1.5: herbicidal rating TRZAWR ([1]; rate 0.0156 kg/ha)
3.5: herbicidal rating TRZAWR ([1]; rate 0.0625 kg/ha)
3.0: Preemergence herbicidal rating IPOHE ([6]; rate 0.2500 kg/ha) | herbicidal rating SETVI ([11]; rate 0.0625 kg/ha)
4.0: herbicidal rating GLXMAW ([9]; rate 0.0156 kg/ha)
7.0: Preemergence herbicidal rating CHEAL ([2]; rate 0.0313 kg/ha) | Preemergence herbicidal rating CHEAL ([2]; rate 0.0625 kg/ha)
0.0: Preemergence herbicidal rating CASOB ([3]; rate 0.0313 kg/ha) | Preemergence herbicidal rating CASOB ([3]; rate 0.0625 kg/ha) | Preemergence herbicidal rating CASOB ([3]; rate 0.1250 kg/ha) | Preemergence herbicidal rating ZEAMX ([4]; rate 0.0313 kg/ha) | Preemergence herbicidal rating ZEAMX ([4]; rate 0.0625 kg/ha) | Preemergence herbicidal rating ZEAMX ([4]; rate 0.1250 kg/ha) | Preemergence herbicidal rating ZEAMX ([4]; rate 0.2500 kg/ha) | Preemergence herbicidal rating IPOHE ([6]; rate 0.0313 kg/ha) | Preemergence herbicidal rating IPOHE ([6]; rate 0.0625 kg/ha) | Preemergence herbicidal rating GALAP ([8]; rate 0.0313 kg/ha) | Preemergence herbicidal rating GALAP ([8]; rate 0.0625 kg/ha) | Preemergence herbicidal rating GALAP ([8]; rate 0.2500 kg/ha) | Preemergence herbicidal rating ECHCG ([10]; rate 0.0313 kg/ha) | Preemergence herbicidal rating ECHCG ([10]; rate 0.0625 kg/ha)
4.5: herbicidal rating GLXMAW ([9]; rate 0.0313 kg/ha)
9.0: Preemergence herbicidal rating CHEAL ([2]; rate 0.1250 kg/ha) | Preemergence herbicidal rating CHEAL ([2]; rate 0.2500 kg/ha) | herbicidal rating AMBEL ([5]; rate 0.0156 kg/ha) | herbicidal rating AMBEL ([5]; rate 0.0313 kg/ha) | herbicidal rating AMBEL ([5]; rate 0.0625 kg/ha) | herbicidal rating IPOHE ([12]; rate 0.0156 kg/ha) | herbicidal rating IPOHE ([12]; rate 0.0313 kg/ha) | herbicidal rating IPOHE ([12]; rate 0.0625 kg/ha) | herbicidal rating ABUTH ([13]; rate 0.0156 kg/ha) | herbicidal rating ABUTH ([13]; rate 0.0313 kg/ha) | herbicidal rating ABUTH ([13]; rate 0.0625 kg/ha)
2.0: herbicidal rating TRZAWR ([1]; rate 0.0313 kg/ha) | herbicidal rating ECHCG ([7]; rate 0.0313 kg/ha) | herbicidal rating SETVI ([11]; rate 0.0156 kg/ha)
